Consider 32 molecules from ChEMBL document CHEMBL5316315 (J Med Chem, 2023).

The source made the active and inactive calls. The rule behind the calls is not given here.

For data set [1], the target named is T1, N-terminal Xaa-Pro-Lys N-methyltransferase 1 (Homo sapiens, UniProt Q9BV86).
T1 sequence (Q9BV86 whole entry): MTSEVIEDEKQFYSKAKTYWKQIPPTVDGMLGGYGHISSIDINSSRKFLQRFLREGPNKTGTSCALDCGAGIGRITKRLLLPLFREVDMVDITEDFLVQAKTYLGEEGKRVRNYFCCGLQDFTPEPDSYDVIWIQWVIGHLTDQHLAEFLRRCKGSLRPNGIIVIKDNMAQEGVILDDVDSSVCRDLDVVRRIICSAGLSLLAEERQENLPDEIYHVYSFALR
The data set is described as follows: Inhibition of N-terminal 6-his tagged TEV fused full length human NTMT1 (1 to 222 residues) expressed in Escherichia coli BL21-Codonplus(DE3)-RIL cells using GPKRIA peptide as substrate preincubated with compound for 10 mins followed by substrate addition and measured immediately by SAHH-coupled fluorescence analysis.

For data set [2], the target named is T2, Ceramide glucosyltransferase (Homo sapiens) (UniProt Q16739).
T2 sequence (whole entry): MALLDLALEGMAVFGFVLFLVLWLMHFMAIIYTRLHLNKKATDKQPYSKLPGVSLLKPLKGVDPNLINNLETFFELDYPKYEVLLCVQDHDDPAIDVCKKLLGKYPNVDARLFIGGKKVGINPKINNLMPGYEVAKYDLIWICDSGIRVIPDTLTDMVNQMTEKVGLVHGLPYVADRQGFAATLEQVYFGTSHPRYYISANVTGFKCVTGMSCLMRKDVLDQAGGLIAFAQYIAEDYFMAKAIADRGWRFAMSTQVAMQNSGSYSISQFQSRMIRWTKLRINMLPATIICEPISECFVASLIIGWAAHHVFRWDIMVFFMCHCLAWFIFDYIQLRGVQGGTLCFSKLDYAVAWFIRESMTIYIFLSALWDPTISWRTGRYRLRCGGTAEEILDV
As to conditions: HCT-116, dose 30.0 nM, time 52.0 hrs.

Data set [3] is described as follows: Toxicity in Balb/c mouse assessed as effect on response at 250 to 350 mg/kg, po administered as single dose for 2 weeks. In kind it is organism-based. The conditions noted are these: in vivo, 336 h, dose 250-350 mg/kg.
Data set [4] can be described thus: AUClast in CD-1 mouse at 25 mg/kg, po measured upto 24 hrs. The data set is classed as ADME, organism-based. As to conditions: in vivo. Also noted: time < 24 hrs, dose 25 mg/kg, route po.
Data set [5] in a line: Toxicity in Balb/c mouse assessed as effect on body weight loss at 250 to 350 mg/kg, po administered as single dose for 2 weeks. In kind it is organism-based. As to conditions: in vivo, 336 h, dose 250-350 mg/kg.
A short description of data set [6]: Dose normalized AUClast in CD-1 mouse at 25 mg/kg, po measured upto 24 hrs. In kind it is ADME, organism-based. As to conditions: in vivo.
The nature of data set [7]: Toxicity in Balb/c mouse assessed as animal death at 400 mg/kg, po administered as single dose and measured 15 mins post administration. The data set is classed as organism-based. As to conditions: in vivo, 0.25 h.
The nature of data set [8]: Drug concentration in CD-1 mouse plasma at 25 mg/kg, po measured after 4 hrs. The data set is classed as ADME, organism-based.
Data set [9] is described as follows: Toxicity in Balb/c mouse assessed as effect on alert behaviour at 250 to 350 mg/kg, po administered as single dose for 2 weeks. In kind it is organism-based. As to conditions: in vivo, 336 h, dose 250-350 mg/kg.
The nature of data set [10]: Toxicity in Balb/c mouse assessed as effect on bright behaviour at 250 to 350 mg/kg, po administered as single dose for 2 weeks. In kind it is organism-based. The conditions noted are these: in vivo, 336 h, dose 250-350 mg/kg.
The nature of data set [11]: Half-life in CD-1 mouse at 25 mg/kg, po measured upto 24 hrs. As to conditions: in vivo. The data set is classed as ADME, organism-based.
Data set [12] in a line: Toxicity in Balb/c mouse assessed as effect on response at 100 to 200 mg/kg, po administered as single dose for 2 weeks. As to conditions: in vivo, 336 h, dose 100-200 mg/kg. In kind it is organism-based.
The nature of data set [13]: Toxicity in Balb/c mouse assessed as effect on body weight loss at 100 to 200 mg/kg, po administered as single dose for 2 weeks. The data set is classed as organism-based. The conditions noted are these: in vivo, 336 h, dose 100-200 mg/kg.
Data set [14] in a line: Tmax in CD-1 mouse at 25 mg/kg, po measured upto 24 hrs. The conditions noted are these: in vivo. The data set is classed as ADME, organism-based.

As to `CC(C)(NC(=O)N[C@@H]1CN2CCC1CC2)c1csc(-c2ccc(F)cc2)n1`, in [1], the concentration for half-maximal inhibition (IC50) – broadly, the concentration that gives 50% inhibition – was found to be 40 µM.

Consider `CNc1nc(C(C)(C)NC(=O)O[C@@H]2CN3CCC2CC3)cs1`, for which the IC50 in data set [1] stood at 50 µM.

Turning to `CC(C)(NC(=O)O[C@@H]1CN2CCC1CC2)c1csc(-c2ccc(F)cc2O)n1`, the IC50 in data set [1] came out at 0.3 µM. The same measure, in the same setting: in the case of `CC(C)(NC(=O)O[C@H]1CCCNC1)c1csc(-c2ccc(F)cc2)n1` it was over 100 µM; in that of `CC(C)(NC(=O)O[C@@H]1CN2CCC1CC2)c1csc(-c2ccccc2N)n1`, 7.1 µM; in that of `CC(C)(NC(=O)O[C@@H]1CN2CCC1CC2)c1csc(-c2cccs2)n1`, 2.4 µM. On the same count and under the same terms, for `COc1ccc(-c2nc(C(C)(C)NC(=O)O[C@@H]3CN4CCC3CC4)cs2)cc1` the value was 54 µM; for `CC(C)(NC(=O)O[C@@H]1CN2CCC1CC2)c1csc(-c2cccc([N+](=O)[O-])c2)n1`, 64 µM; for `CC(C)(NC(=O)O[C@@H]1CN2CCC1CC2)c1csc(-c2ccc(C(=O)O)cc2)n1`, over 100 µM. The same measure, in the same setting: for `CC(C)(C(=O)N[C@@H]1CN2CCC1CC2)c1csc(-c2ccc(F)cc2)n1` the value was over 100 µM; for `CC(C)(NC(=O)O[C@@H]1CN2CCC1CC2)c1csc(-c2cncnc2)n1`, over 100 µM; for `O=C(NCc1csc(-c2ccc(F)cc2)n1)O[C@@H]1CN2CCC1CC2`, over 100 µM. In the case of `CCCN1CCC[C@H](OC(=O)NC(C)(C)c2csc(-c3ccc(F)cc3)n2)C1`, the IC50 in data set [1] is 18 µM. As to `CC(C)(NC(=O)O[C@@H]1CN2CCC1CC2)c1csc(-c2cccc3ccccc23)n1`, the IC50 in data set [1] came to 44 µM. On the same count and under the same terms, for `CC(C)(NC(=O)O[C@@H]1CN2CCC1CC2)c1csc(-c2ccc(N)cc2)n1` the value was 7.5 µM; for `CC(C)(NC(=O)OCCN1CCCCC1)c1csc(-c2ccc(F)cc2)n1`, over 100 µM; for `CC(C)(NC(=O)O[C@@H]1CN2CCC1CC2)c1csc(-c2cccc(N)c2)n1`, 7.6 µM. The same measure, in the same setting: for `CC(C)(NC(=O)O[C@@H]1CN2CCC1CC2)c1csc(-c2ccccn2)n1` the value was 3.7 µM. `CC(C)(NC(=O)O[C@@H]1CN2CCC1CC2)c1csc(-c2ccc(F)cc2)n1`: the inhibition result in data set [2] was “Active”. For the molecule `CC(C)(NC(=O)O[C@@H]1CN2CCC1CC2)c1csc(-c2ccc(O)cc2)n1`, the half-maximal inhibitory concentration (IC50) in data set [1] turned out to be 25 µM.

As to `CC(C)(NC(=O)O[C@@H]1CN2CCC1CC2)c1csc(-c2ccc(F)c(O)c2)n1`, the Activity result is “Non-Toxic” in data set [3]; “Non-Toxic” in data set [5]; “Toxic” in data set [7]; “Non-Toxic” in [9]; “Non-Toxic” in data set [10]; “Non-Toxic” in data set [12]. For the same molecule, in data set [13], the Activity result is listed as “Non-Toxic”. Moreover, the AUC(0-t) (as a rule, the area under the concentration-time curve up to a stated or last time point) at 24 h in [4] is 157 ng·h/mL. Also, in data set [6], the AUClast/dose worked out at 6.27 ng·h/mL. Further, in data set [8], the concentration at 4 h was over 18.8 ng/mL. Moreover, the half-life (as a rule, how long it takes for the measured level to halve) in data set [11] is 2.63 h. The Tmax – broadly, the time from dosing to the highest level – in [14] worked out at 0.25 h.

Take `CC(C)(NC(=O)O[C@@H]1CN2CCC1CC2)c1csc(-c2cccnc2)n1`: the IC50 in data set [1] was determined as 2.8 µM.

On to `CC(C)(NC(=O)O[C@@H]1CN2CCC1CC2)c1csc(-c2cccc(O)c2)n1`, for which the IC50 in [1] amounted to 0.56 µM. Regarding `CC(C)(NC(=O)O[C@@H]1CN2CCC1CC2)c1csc(-c2ccccc2O)n1`, the IC50 in data set [1] is 4.6 µM. Still for that read-out and setting: for `CC(C)(NC(=O)O[C@@H]1CN2CCC1CC2)c1csc(-c2ccoc2)n1` the value was 91 µM. Same read-out and setting: in the case of `CC(C)(NC(=O)O[C@@H]1CN2CCC1CC2)c1csc(-c2ccsc2)n1` it was 9.1 µM; in that of `CN1CCC[C@H](OC(=O)NC(C)(C)c2csc(-c3ccc(F)cc3)n2)C1`, 25 µM; in that of `CC(C)(NC(=O)O[C@@H]1CN2CCC1CC2)c1csc(-c2ccco2)n1`, 21 µM. Take `CC(C)(NC(=O)O[C@@H]1CN2CCC1CC2)c1csc(I)n1`: the concentration for half-maximal inhibition (IC50) in data set [1] is 46 µM. Same read-out and setting: in the case of `CC(C)(NC(=O)Oc1cccnc1)c1csc(-c2ccc(F)cc2)n1` it was over 100 µM; in that of `CC(C)(NC(=O)O[C@@H]1CN2CCC1CC2)c1csc(-c2ccc(F)nc2)n1`, 1.5 µM; in that of `CC(C)c1nc(C(C)(C)NC(=O)O[C@@H]2CN3CCC2CC3)cs1`, over 100 µM.
